Starred links: 1 amine or outer side, 2 acyl side, 3 side chain; linkers in the order of their positions; H or OH if unused. Non-standard residues stand in square brackets, D forms with d. Residues, ends and D or L forms follow the SMILES beside them. *: point of attachment. dPro(cis-4-NH2) = N[C@H]1CN[C@@H](C(=O)O)C1; X1 = O=C([C@H](CCCNCc1ccccn1)N[*:1])[*:2]; dPro(4S-NH2) = N[C@@H]1CN[C@@H](C(=O)O)C1; Oic = O=C(O)[C@@H]1C[C@@H]2CCCC[C@@H]2N1; Morpholine(3S-CO) = O=C(O)[C@@H]1COCCN1; Pro(4S-NH2) = N[C@@H]1CN[C@H](C(=O)O)C1; Pro(4R-NH2) = N[C@H]1CN[C@H](C(=O)O)C1; 1Nal = N[C@@H](Cc1cccc2ccccc12)C(=O)O; 2Nal = N[C@@H](Cc1ccc2ccccc2c1)C(=O)O; Pro(3S-OH) = O=C(O)[C@H]1NCC[C@@H]1O; X2 = O=C([C@H](Cn1ncnn1)N[*:1])[*:2]; cisHyp = O=C(O)[C@@H]1C[C@H](O)CN1; Pyrazinecarbonyl = O=C(c1cnccn1)*; hArg = N=C(N)NCCCC[C@H](N)C(=O)O; Tic = O=C(O)[C@@H]1Cc2ccccc2CN1; d3Pal = N[C@H](Cc1cccnc1)C(=O)O; dHyp = O=C(O)[C@H]1C[C@H](O)CN1; dTic = O=C(O)[C@H]1Cc2ccccc2CN1; Cha = N[C@@H](CC1CCCCC1)C(=O)O; Chg = N[C@H](C(=O)O)C1CCCCC1; dOrn = NCCC[C@@H](N)C(=O)O; Nle = CCCC[C@H](N)C(=O)O; Orn = NCCC[C@H](N)C(=O)O; Abu = CC[C@H](N)C(=O)O; Bn = c1ccc(C*)cc1
target: T1, CXCR7 (Homo sapiens, UniProt P25106); assay: CXCR7 β-arrestin recruitment assay (PathHunter CHO-CXCR7, DiscoverX), agonistic assay; format: cell-based; settings: agonistic assay; CHO CXCR7 β-arrestin cells; 90 min at 37° C.; chemiluminescence; read-out: β-Arrestin EC50
T1 construct: host or cells: CHO (PathHunter CHO-CXCR7 β-arrestin cells)
Method: Lyophilized peptides were weighed on a Microbalance (Mettler MX5) and dissolved in DMSO to a final concentration of 10 mM unless otherwise stated. Stock solutions were kept at +4° C., and protected from light.
2.2 CXCR7 β-Arrestin Recruitment Assay
The PathHunter CHO-CXCR7 (DiscoverX) assay was performed according to the manufacturer's protocol. In brief, CHO CXCR7 β-arrestin cells were seeded at a density of 5000 cells per well in 40 μl of F12 medium in black 96-half volume well culture plates and incubated overnight at 37° C. in a humidified atmosphere with 5% CO2. The next day, serial dilutions of PEM compounds have been prepared in DMSO and subsequently diluted in HBSS buffer containing 0.1% BSA.
For agonistic assay, 10 μl of compound solution or a solution of stromal cell-derived factor-1 (SDF-1) as positive control was added to the cells with a final DMSO concentration of 1% (v/v). The plate was incubated for 90 min at 37° C. in 5% CO2 incubator with gentle shaking (300 rpm) before addition of 40 μl of detection reagent per well. Reaction was developed for 90 min at room temperature in the dark with shaking, and chemiluminescence was measured with a Topcount (Perkin Elmer) luminescence counter.

T1 sequence (P25106 whole entry): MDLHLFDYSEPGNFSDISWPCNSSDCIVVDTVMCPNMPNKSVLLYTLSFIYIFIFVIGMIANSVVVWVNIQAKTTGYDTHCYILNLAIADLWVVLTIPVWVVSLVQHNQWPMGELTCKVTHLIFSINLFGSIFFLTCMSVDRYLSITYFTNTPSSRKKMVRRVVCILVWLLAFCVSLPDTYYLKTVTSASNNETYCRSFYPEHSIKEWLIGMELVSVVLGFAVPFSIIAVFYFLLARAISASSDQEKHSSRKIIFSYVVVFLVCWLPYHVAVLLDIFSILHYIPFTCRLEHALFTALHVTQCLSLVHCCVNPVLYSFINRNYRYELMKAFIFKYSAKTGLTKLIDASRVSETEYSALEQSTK

EC50 | Structure (SMILES)
6.1 ± 1.5 nM | N=C(N)NCCC[C@@H]1NC(=O)[C@H](Cc2c[nH]c3ccccc23)NC(=O)[C@@H](Cc2cccnc2)NC(=O)[C@H](Cc2c[nH]c3ccccc23)NC(=O)[C@@H]2Cc3ccccc3CN2C(=O)[C@H]2C[C@@H](N)CN2C1=O [compound 38, cyclo(-Trp-^D3Pal-Trp-Arg-^DPro((4R)NH2)-Tic-)] (cyclo(R[dPro(cis-4-NH2)][Tic]W[d3Pal]W))
352 ± 79.3 nM | N=C(N)NCCCC[C@@H]1NC(=O)[C@H](Cc2c[nH]c3ccccc23)NC(=O)[C@@H](Cc2ccccc2)NC(=O)[C@H](CCCNC(=N)N)NC(=O)[C@@H]2Cc3ccccc3CN2C(=O)[C@H]2C[C@@H](N)CN2C1=O [compound 39, cyclo(-Arg-^DPhe-Trp-hArg-^DPro((4R)N H2)-Tic-)] (cyclo(R[dF]W[hArg][dPro(cis-4-NH2)][Tic]))
13.1 ± 4.4 nM | N=C(N)NCCC[C@@H]1NC(=O)[C@@H]2Cc3ccccc3CN2C(=O)[C@H]2C[C@H](N)CN2C(=O)[C@H](CCCNC(=N)N)NC(=O)[C@H](Cc2c[nH]c3ccccc23)NC(=O)[C@@H](Cc2ccccc2)NC1=O [compound 40, cyclo(-Arg-^DPhe-Trp-Arg-^DPro((4S)NH2)-Tic-)] (cyclo(R[dF]WR[dPro(4S-NH2)][Tic]))
20.5 ± 10.9 nM | N=C(N)NCCC[C@@H]1NC(=O)[C@@H]2C[C@@H]3CCCC[C@@H]3N2C(=O)[C@H]2C[C@@H](N)CN2C(=O)[C@H](CCCNC(=N)N)NC(=O)[C@H](Cc2c[nH]c3ccccc23)NC(=O)[C@@H](Cc2ccccc2)NC1=O [compound 42, cyclo(-Arg-^DPhe-Trp-Arg-^DPro((4R)NH2)-Oic-)] (cyclo([Oic]R[dF]WR[dPro(cis-4-NH2)]))
36.9 ± 14 nM | N=C(N)NCCC[C@@H]1NC(=O)[C@H](Cc2c[nH]c3ccccc23)NC(=O)[C@@H](Cc2ccccc2)NC(=O)[C@H](Cc2c[nH]c3ccccc23)NC(=O)[C@@H]2C[C@H](N)CN2C(=O)[C@H]2CCCN2C1=O [compound 44, cyclo(-Trp-^DPhe-Trp-Arg-^DPro-Pro((4S)NH2)—)] (cyclo(R[dP][Pro(4S-NH2)]W[dF]W))
26.9 ± 12.6 nM | N=C(N)NCCC[C@@H]1NC(=O)[C@H](Cc2c[nH]c3ccccc23)NC(=O)[C@@H](Cc2ccccc2)NC(=O)[C@H](Cc2c[nH]c3ccccc23)NC(=O)[C@@H]2C[C@@H](N)CN2C(=O)[C@H]2CCCN2C1=O [compound 45, cyclo(-Trp-^DPhe-Trp-Arg-^DPro-Pro((4R)NH2)—)] (cyclo(R[dP][Pro(4R-NH2)]W[dF]W))
132 ± 53.1 nM | N=C(N)NCCC[C@@H]1NC(=O)[C@H](Cc2c[nH]c3ccccc23)NC(=O)[C@@H](Cc2ccccc2)NC(=O)[C@H](Cc2c[nH]c3ccccc23)NC(=O)[C@@H]2COCCN2C(=O)[C@H]2CCCN2C1=O [compound 46, cyclo(-Trp-^DPhe-Trp-Arg-^DPro-Mor-)] (cyclo(R[dP][Morpholine(3S-CO)]W[dF]W))
7.6 ± 10.1 nM | N=C(N)NCCC[C@@H]1NC(=O)[C@H](Cc2c[nH]c3ccccc23)NC(=O)[C@@H](Cc2ccccc2)NC(=O)[C@H](Cc2c[nH]c3ccccc23)NC(=O)[C@@H]2C[C@H](OCc3ccccc3)CN2C(=O)[C@H]2C[C@H](O)CN2C1=O [compound 49, cyclo(-Trp-^DPhe-Trp-Arg-^DPro((4S)OH)-(4S)-Hyp(Bn)-)] (cyclo(R[dHyp][cisHyp](Bn)W[dF]W))
6.6 ± 1.6 nM | N=C(N)NCCC[C@@H]1NC(=O)[C@H](Cc2c[nH]c3ccccc23)NC(=O)[C@@H](Cc2ccccc2)NC(=O)[C@H](Cc2c[nH]c3ccccc23)NC(=O)[C@@H]2C[C@H](OCc3ccccc3)CN2C(=O)[C@H]2C[C@@H](N)CN2C1=O [compound 50, cyclo(-Trp-^DPhe-Trp-Arg-^DPro((4R)NH2)-(4S)-Hyp(Bn)-)] (cyclo(R[dPro(cis-4-NH2)][cisHyp](Bn)W[dF]W))
13.7 ± 5.1 nM | N=C(N)NCCC[C@@H]1NC(=O)[C@@H](CCCNC(=N)N)NC(=O)[C@H](Cc2cccc3ccccc23)NC(=O)[C@@H]2[C@@H](O)CCN2C(=O)[C@H]2CCCN2C(=O)[C@H](Cc2c[nH]c3ccccc23)NC1=O [compound 52, cyclo(-1Nal-^DArg-Arg-Trp-^DPro-Pro((3S)OH)—)] (cyclo([1Nal][dR]RW[dP][Pro(3S-OH)]))
76.8 ± 47.9 nM | CC[C@H](C)[C@@H]1NC(=O)[C@@H]2[C@@H](O)CCN2C(=O)[C@H]2CCCN2C(=O)[C@H](Cc2ccc3ccccc3c2)NC(=O)[C@H](CCCNC(=N)N)NC(=O)[C@@H](CCCNC(=N)N)NC1=O [compound 53, cyclo(-Ile-^DArg-Arg-2Nal-^DPro-Pro((3S)OH)—)] (cyclo([2Nal][dP][Pro(3S-OH)]I[dR]R))
271 ± 0.2 nM | CC(C)[C@@H]1NC(=O)[C@H]([C@@H](C)O)NC(=O)[C@H]2CCCN2C(=O)[C@H](Cc2c[nH]c3ccccc23)NC(=O)[C@H](CCCNC(=N)N)NC(=O)[C@@H](CCCNC(=N)N)NC1=O [compound 57, cyclo(-Val-^DArg-Arg-Trp-^DPro-Thr-)] (cyclo(RW[dP]TV[dR]))
330 ± 93.2 nM | CC[C@@H]1NC(=O)[C@H]([C@@H](C)O)NC(=O)[C@H]2CCCN2C(=O)[C@H](Cc2c[nH]c3ccccc23)NC(=O)[C@H](CCCNC(=N)N)NC(=O)[C@@H](CCCNC(=N)N)NC1=O [compound 58, cyclo(-Abu-^DArg-Arg-Trp-^DPro-Thr-)] (cyclo([Abu][dR]RW[dP]T))
6.7 ± 2.2 nM | C[C@@H](O)[C@@H]1NC(=O)[C@H]2CCCN2C(=O)[C@H](Cc2c[nH]c3ccccc23)NC(=O)[C@H](CCCNC(=N)N)NC(=O)[C@@H](CCCNC(=N)N)NC(=O)[C@H](C2CCCCC2)NC1=O [compound 59, cyclo(-Chg-^DArg-Arg-Trp-^DPro-Thr-)] (cyclo([Chg][dR]RW[dP]T))
5.3 ± 3.6 nM | CC(C)C[C@@H]1NC(=O)[C@H]([C@@H](C)O)NC(=O)[C@H]2CCCN2C(=O)[C@H](Cc2c[nH]c3ccccc23)NC(=O)[C@H](CCCNC(=N)N)NC(=O)[C@@H](CCCNC(=N)N)NC1=O [compound 60, cyclo(-Leu-^DArg-Arg-Trp-^DPro-Thr-)] (cyclo(L[dR]RW[dP]T))
2.8 ± 1 nM | CCCC[C@@H]1NC(=O)[C@H]([C@@H](C)O)NC(=O)[C@H]2CCCN2C(=O)[C@H](Cc2c[nH]c3ccccc23)NC(=O)[C@H](CCCNC(=N)N)NC(=O)[C@@H](CCCNC(=N)N)NC1=O [compound 61, cyclo(-Nle-^DArg-Arg-Trp-^DPro-Thr-)] (cyclo([Nle][dR]RW[dP]T))
37.7 ± 18.5 nM | C[C@@H](O)[C@@H]1NC(=O)[C@H]2CCCN2C(=O)[C@H](Cc2c[nH]c3ccccc23)NC(=O)[C@H](CCCNC(=N)N)NC(=O)[C@@H](CCCNC(=N)N)NC(=O)[C@H](CC2CCCCC2)NC1=O [compound 62, cyclo(-Cha-^DArg-Arg-Trp-^DPro-Thr-)] (cyclo([Cha][dR]RW[dP]T))
23.3 ± 7.3 nM | CC[C@H](C)[C@@H]1NC(=O)[C@H]([C@@H](C)O)NC(=O)[C@H]2CCCN2C(=O)[C@H](Cc2c[nH]c3ccccc23)NC(=O)[C@H](CCCNC(=N)N)NC(=O)[C@@H](CCCN)NC1=O [compound 63, cyclo(-Ile-^DOrn-Arg-Trp-^DPro-Thr-)] (cyclo(I[dOrn]RW[dP]T))
518 ± 20.9 nM | CC[C@H](C)[C@@H]1NC(=O)[C@H]([C@@H](C)O)NC(=O)[C@H]2CCCN2C(=O)[C@H](Cc2c[nH]c3ccccc23)NC(=O)[C@H](CCCNC(=O)c2cnccn2)NC(=O)[C@@H](CCCNC(=N)N)NC1=O [compound 64, cyclo(-Ile-^DArg-Orn(A41)-Trp-^DPro-Thr-)] (cyclo(I[dR][Orn](Pyrazinecarbonyl)W[dP]T))
816 ± 58.8 nM | CC[C@H](C)[C@@H]1NC(=O)[C@H]([C@@H](C)O)NC(=O)[C@H]2CCCN2C(=O)[C@H](Cc2c[nH]c3ccccc23)NC(=O)[C@H](CCCN)NC(=O)[C@@H](CCCNC(=N)N)NC1=O [compound 65, cyclo(-Ile-^DArg-Orn-Trp-^DPro-Thr-)] (cyclo(I[dR][Orn]W[dP]T))
11 ± 4.5 nM | CC[C@H](C)[C@@H]1NC(=O)[C@H]([C@@H](C)O)NC(=O)[C@H]2CCCN2C(=O)[C@H](Cc2c[nH]c3ccccc23)NC(=O)[C@H](CCCCNC(=N)N)NC(=O)[C@@H](CCCNC(=N)N)NC1=O [compound 66, cyclo(-Ile-^DArg-hArg-Trp-^DPro-Thr-)] (cyclo(I[dR][hArg]W[dP]T))
14.2 ± 5.2 nM | CC[C@H](C)[C@@H]1NC(=O)[C@H]([C@@H](C)O)NC(=O)[C@H]2Cc3ccccc3CN2C(=O)[C@H](Cc2c[nH]c3ccccc23)NC(=O)[C@H](CCCNC(=N)N)NC(=O)[C@@H](CCCNC(=N)N)NC1=O [compound 67, cyclo(-Ile-^DArg-Arg-Trp-^DTic-Thr-)] (cyclo(I[dR]RW[dTic]T))
4.6 ± 0.8 nM | CC[C@H](C)[C@@H]1NC(=O)[C@H]([C@@H](C)O)NC(=O)[C@H]2CCCN2C(=O)[C@H](Cc2c[nH]c3ccccc23)NC(=O)[C@H](CCCNCc2ccccn2)NC(=O)[C@@H](CCCNC(=N)N)NC1=O [compound 70, cyclo(-Ile-^DArg-Orn(Ar4)-Trp-^DPro-Thr-)] (cyclo(I[dR][X1]W[dP]T))
28.1 ± 5.1 nM | N=C(N)NCCC[C@@H]1NC(=O)[C@H](Cc2c[nH]c3ccccc23)NC(=O)[C@@H](Cc2ccccc2)NC(=O)[C@H](Cn2ncnn2)NC(=O)[C@@H]2Cc3ccccc3CN2C(=O)[C@H]2C[C@@H](N)CN2C1=O [compound 75, cyclo(-Ala(Tet)-^DPhe-Trp-Arg-^DPro((4R)NH2)-Tic-)] (cyclo(R[dPro(cis-4-NH2)][Tic][X2][dF]W))
